Laboratory results reported in ChEMBL document CHEMBL1949621, “Fluorocyclines. 1. 7-fluoro-9-pyrrolidinoacetamido-6-demethyl-6-deoxytetracycline: a potent, broad spectrum antibacterial agent” (J Med Chem, 2012).
Converted amounts (≈) assume the structure as drawn.

Tests used:
Format in all cases: functional
Pseudomonas aeruginosa = assay: Antibacterial activity against Pseudomonas aeruginosa ATCC 111 27853
Streptococcus pneumoniae [1] = assay: microbe, parasite or virus in culture; settings: ATCC 106 49619
Description: Antibacterial activity against Streptococcus pneumoniae ATCC 106 49619

Staphylococcus aureus [2] = assay: Antibacterial activity against Staphylococcus aureus ATCC 101 29213
Escherichia coli [3] = assay: Antibacterial activity against tetracycline-resistant Escherichia coli 155
Escherichia coli [4] = assay: Antibacterial activity against Escherichia coli ATCC 107 25922
Klebsiella pneumoniae [5] = assay: Antibacterial activity against tetracycline-resistant Klebsiella pneumoniae 153
Klebsiella pneumoniae [6] = assay: Antibacterial activity against Klebsiella pneumoniae ATCC 109 13883
Staphylococcus aureus [7] = assay: microbe, parasite or virus in culture; settings: 158
Enterococcus faecalis [8] = assay: Antibacterial activity against Enterococcus faecalis ATCC 103 29212
Enterobacter cloacae = assay: Antibacterial activity against Enterobacter cloacae ATCC 108 13047
Staphylococcus aureus [9] = assay: Antibacterial activity against tetracycline- and methicillin-resistant Staphylococcus aureus 161
Enterococcus faecalis [10] = assay: Antibacterial activity against tetracycline-resistant Enterococcus faecalis 159
Streptococcus pneumoniae [11] = assay: Antibacterial activity against tetracycline-resistant Streptococcus pneumoniae 160
Acinetobacter baumannii = assay: Antibacterial activity against Acinetobacter baumannii ATCC 19606 110

| SMILES | MIC (Pseudomonas aeruginosa) [µg/mL] | MIC (Streptococcus pneumoniae [1]) [µg/mL] | MIC (Staphylococcus aureus [2]) [µg/mL] | MIC (Escherichia coli [3]) [µg/mL] | MIC (Escherichia coli [4]) [µg/mL] | MIC (Klebsiella pneumoniae [5]) [µg/mL] | MIC (Klebsiella pneumoniae [6]) [µg/mL] | MIC (Staphylococcus aureus [7]) [µg/mL] | MIC (Enterococcus faecalis [8]) [µg/mL] | MIC (Enterobacter cloacae) [µg/mL] | MIC (Staphylococcus aureus [9]) [µg/mL] | MIC (Enterococcus faecalis [10]) [µg/mL] | MIC (Streptococcus pneumoniae [11]) [µg/mL] | MIC (Acinetobacter baumannii) [µg/mL] |
| --- | --- | --- | --- | --- | --- | --- | --- | --- | --- | --- | --- | --- | --- | --- |
| CN(C)[C@@H]1C(O)=C(C(N)=O)C(=O)[C@@]2(O)C(O)=C3C(=O)c4c(O)c(NC(=O)CN5CC6CCCC6C5)cc(F)c4C[C@H]3C[C@@H]12 (stereo partly specified) | > 32 | 0.125 (≈ 0.209 µM) | 0.5 (≈ 0.835 µM) | 2 (≈ 3.34 µM) | 1 (≈ 1.67 µM) | 4 (≈ 6.68 µM) | 2 (≈ 3.34 µM) | 0.5 (≈ 0.835 µM) | 0.25 (≈ 0.418 µM) | 4 (≈ 6.68 µM) | 1 (≈ 1.67 µM) | 0.5 (≈ 0.835 µM) | 0.06 (≈ 0.1 µM) | 0.06 (≈ 0.1 µM) |
| CN(C)[C@@H]1C(O)=C(C(N)=O)C(=O)[C@@]2(O)C(O)=C3C(=O)c4c(O)c(NC(=O)CN5CCOCC5)cc(F)c4C[C@H]3C[C@@H]12 | > 32 | 0.5 (≈ 0.87 µM) | 4 (≈ 6.96 µM) | > 32 | > 32 | > 32 | > 32 | 8 (≈ 13.9 µM) | 8 (≈ 13.9 µM) | > 32 | 8 (≈ 13.9 µM) | 8 (≈ 13.9 µM) | 1 (≈ 1.74 µM) | 8 (≈ 13.9 µM) |
| COCCNCC(=O)Nc1cc(F)c2c(c1O)C(=O)C1=C(O)[C@]3(O)C(=O)C(C(N)=O)=C(O)[C@@H](N(C)C)[C@@H]3C[C@@H]1C2 | 16 (≈ 28.4 µM) | 0.0156 (≈ 0.0277 µM) | 0.25 (≈ 0.444 µM) | 16 (≈ 28.4 µM) | 1 (≈ 1.78 µM) | 8 (≈ 14.2 µM) | 2 (≈ 3.56 µM) | 4 (≈ 7.11 µM) | 0.125 (≈ 0.222 µM) | 4 (≈ 7.11 µM) | 0.5 (≈ 0.889 µM) | 1 (≈ 1.78 µM) | 0.0625 (≈ 0.111 µM) | 2 (≈ 3.56 µM) |
| CN(C)[C@@H]1CCN(CC(=O)Nc2cc(F)c3c(c2O)C(=O)C2=C(O)[C@]4(O)C(=O)C(C(N)=O)=C(O)[C@@H](N(C)C)[C@@H]4C[C@@H]2C3)C1 | > 32 | 2 (≈ 3.32 µM) | 8 (≈ 13.3 µM) | > 32 | > 32 | > 32 | > 32 | > 32 | 16 (≈ 26.6 µM) | > 32 | > 32 | 16 (≈ 26.6 µM) | 4 (≈ 6.65 µM) | > 32 |
| CN(C)[C@@H]1C(O)=C(C(N)=O)C(=O)[C@@]2(O)C(O)=C3C(=O)c4c(O)c(NC(=O)CN5CC[C@@H](O)C5)cc(F)c4C[C@H]3C[C@@H]12 | > 32 | 0.25 (≈ 0.435 µM) | 2 (≈ 3.48 µM) | > 32 | 4 (≈ 6.96 µM) | > 32 | 16 (≈ 27.8 µM) | 16 (≈ 27.8 µM) | 2 (≈ 3.48 µM) | 16 (≈ 27.8 µM) | 2 (≈ 3.48 µM) | 2 (≈ 3.48 µM) | 0.5 (≈ 0.87 µM) | 32 (≈ 55.7 µM) |
| CC(C)NCC(=O)Nc1cc(F)c2c(c1O)C(=O)C1=C(O)[C@]3(O)C(=O)C(C(N)=O)=C(O)[C@@H](N(C)C)[C@@H]3C[C@@H]1C2 | 16 (≈ 29.3 µM) | 0.0156 (≈ 0.0285 µM) | 0.125 (≈ 0.229 µM) | 8 (≈ 14.6 µM) | 0.5 (≈ 0.915 µM) | 4 (≈ 7.32 µM) | 1 (≈ 1.83 µM) | 0.5 (≈ 0.915 µM) | 0.0625 (≈ 0.114 µM) | 1 (≈ 1.83 µM) | 0.25 (≈ 0.457 µM) | 0.0625 (≈ 0.114 µM) | 0.0156 (≈ 0.0285 µM) | 1 (≈ 1.83 µM) |
| CN(C)[C@@H]1C(O)=C(C(N)=O)C(=O)[C@@]2(O)C(O)=C3C(=O)c4c(O)c(NC(=O)CN5CCCCC5)cc(F)c4C[C@H]3C[C@@H]12 | 32 (≈ 55.9 µM) | 0.0156 (≈ 0.0272 µM) | 0.5 (≈ 0.873 µM) | 4 (≈ 6.99 µM) | 1 (≈ 1.75 µM) | 4 (≈ 6.99 µM) | 2 (≈ 3.49 µM) | 0.5 (≈ 0.873 µM) | 0.25 (≈ 0.437 µM) | 4 (≈ 6.99 µM) | 1 (≈ 1.75 µM) | 0.5 (≈ 0.873 µM) | 0.0156 (≈ 0.0272 µM) | 0.125 (≈ 0.218 µM) |
| CN(C)CC(=O)Nc1cc(F)c2c(c1O)C(=O)C1=C(O)[C@]3(O)C(=O)C(C(N)=O)=C(O)[C@@H](N(C)C)[C@@H]3C[C@@H]1C2 | 8 (≈ 15 µM) | 0.0156 (≈ 0.0293 µM) | 0.0156 (≈ 0.0293 µM) | 8 (≈ 15 µM) | 0.125 (≈ 0.235 µM) | 8 (≈ 15 µM) | 0.5 (≈ 0.939 µM) | 0.25 (≈ 0.469 µM) | 0.0156 (≈ 0.0293 µM) | 1 (≈ 1.88 µM) | 0.125 (≈ 0.235 µM) | 0.0312 (≈ 0.0586 µM) | 0.0156 (≈ 0.0293 µM) | 0.125 (≈ 0.235 µM) |
| CN(C)[C@@H]1C(O)=C(C(N)=O)C(=O)[C@@]2(O)C(O)=C3C(=O)c4c(O)c(NC(=O)CN5Cc6ccccc6C5)cc(F)c4C[C@H]3C[C@@H]12 | > 32 | 0.125 (≈ 0.206 µM) | 0.25 (≈ 0.412 µM) | 4 (≈ 6.59 µM) | 2 (≈ 3.3 µM) | 32 (≈ 52.8 µM) | 4 (≈ 6.59 µM) | 0.25 (≈ 0.412 µM) | 0.25 (≈ 0.412 µM) | 32 (≈ 52.8 µM) | 0.5 (≈ 0.824 µM) | 0.5 (≈ 0.824 µM) | 0.125 (≈ 0.206 µM) | 0.125 (≈ 0.206 µM) |
